{"source": "patent US12274684B2", "about": "“Treatment of vasculopathy with prostacyclin and mesenchymal stem cells” (United Therapeutics Corporation, priority 2013, dated 2025)", "key": {"human bone marrow MSC": {"system": "human bone marrow MSC", "assay": "Bead-based immunoassay (Luminex) of cytokines in MSC culture supernatant", "format": "cell-based", "conditions": "250 μg/mL, 24 h", "experimental": "Human bone marrow MSC were expanded and seeded into six (6) T225 flasks using standard growth medium (Table 1). At 95-99% confluency, cells were thoroughly washed with PBS. Three (3) flasks were replenished with basal media containing 250 μg/mL treprostinil, (+)Tre, and the remaining three (3) flasks were replenished with unsupplemented basal media, (−)Tre. After 24 hours of culture, representative images were captured from (+) Tre and (−) Tre cultures. Conditioned media was collected from each replicate, divided into two samples of appropriate volumes, and analyzed separately for: 1) secreted proteins (Myriad RBM InflammationMAP® 1.0) and 2) exosome RNA content. Cells were lysed directly from culture flasks, processed for total RNA isolation, and analyzed for gene expression by microarray (Illumina Human HT12 Expression BeadChip). Bead-based immunoassays (Luminex) was performed to assess the concentration of 46 cytokines in cell culture supernatants (Myriad RBM Human InflammationMAP® 1.0). Of the 46 evaluated, 6 were differentially secreted in treprostinil-treated and -untreated MSC cultures (see Table 6, n=3 per group). Asterisks indicate statistical significance between the groups based on a Student's T Test (*p<0.001, or **p<0.0001)."}, "[1]": {"system": "human bone marrow mesenchymal stem cells (BM-MSC)", "assay": "VEGF secretion by MSC, ELISA of conditioned media", "format": "cell-based", "experimental": "A single vial of human bone marrow-derived MSC was expanded and seeded into twenty (20) wells of 6-well plates using standard growth medium. At 95-99% confluency, cells were thoroughly washed with phosphate-buffered saline (PBS). Cells were then exposed to media containing 0, 0.1, 1.0, 10, or 100 μg/mL of treprostinil (n=4 wells for each concentration). After 24 hours of culture, the conditioned media was collected from each replicate and analyzed for Vascular Endothelial Growth Factor (VEGF) protein by enzyme-linked immunosorbent assay (ELISA). The goal of this experiment was to determine the optimal concentration of treprostinil needed to elicit a cellular response in MSC (using VEGF as a read out). A follow-up experiment to Example 1 was conducted to determine if treprostinil concentrations above 100 μg/mL affected MSC secretion of VEGF. As before, a single vial (same lot/batch) of bone marrow-derived MSC was expanded to thirty (30) wells of 6-well plates using standard growth medium. At 95-99% confluency, cells were thoroughly washed with PBS. Cells were then exposed to media containing 0, 100, 200, 300, or 400 μg/mL of treprostinil (n=6 wells for each concentration). Conditioned media was assayed for VEGF by ELISA after 24 hours of treprostinil exposure (n=4 replicates). Cells from those replicates were lysed, and RNA was extracted to determine VEGF-A gene expression by qRT-PCR. Cells from the remaining two (2) replicates were trypsinized, and assayed for cell viability by trypan blue exclusion. Cell culture supernatant was assayed for VEGF protein by ELISA (FIG. 3A, n=4). Cell lysates from those cultures were assayed for VEGF-A gene expression by qRT-PCR, and normalized to the control value (FIG. 3B, n=4). In both figures, error bars represent the standard deviation in each test group."}}, "note": "“Also recorded” adds a separate entry of the source."}
{"smiles": "CCCCC[C@H](O)CC[C@@H]1[C@H]2Cc3cccc(OCC(=O)O)c3C[C@H]2C[C@H]1O", "note": "[treprostinil]", "values": [{"measurement": "IL-6 production, fold more compared to control MSC", "setting": "human bone marrow MSC", "value": "~50", "unit": "fold"}, {"measurement": "MCP-1 secretion, fold less than control MSC", "setting": "human bone marrow MSC", "value": "6-7 fold"}, {"measurement": "Interleukin-8 (IL-8) secretion", "setting": "human bone marrow MSC; DECREASED vs (−) Treprostinil 2.4 +/− 1.0 pg/ml", "value": "Below detection"}, {"measurement": "Tissue Inhibitor of Metalloproteinases 1 (TIMP-1) secretion", "setting": "human bone marrow MSC; DECREASED vs (−) Treprostinil 29 +/− 3 ng/ml, p<0.001", "value": "12 ± 1", "unit": "ng/mL"}, {"measurement": "Monocyte Chemotactic Protein 1 (MCP-1) secretion", "setting": "human bone marrow MSC; DECREASED vs (−) Treprostinil 379 +/− 35 pg/ml, p<0.0001", "value": "47 ± 9", "unit": "pg/mL"}, {"measurement": "Ferritin (FRTN) secretion", "setting": "human bone marrow MSC; INCREASED vs (−) Treprostinil 0.70 +/− 0.11 ng/mL", "value": "0.96 ± 0.01", "unit": "ng/mL"}, {"measurement": "Interleukin-6 (IL-6) secretion", "setting": "human bone marrow MSC; INCREASED vs (−) Treprostinil 62 +/− 6 pg/ml, p<0.0001", "value": "3580 ± 384", "unit": "pg/mL"}, {"measurement": "Vascular Endothelial Growth Factor (VEGF) secretion", "setting": "human bone marrow MSC; INCREASED vs (−) Treprostinil 235 +/− 16 pg/ml, p<0.0001", "value": "612 ± 37", "unit": "pg/mL"}, {"measurement": "VEGF secretion, fold increase vs untreated controls", "setting": "[1]; 100 μg/mL, 24 h (Example 2)", "value": "~2", "unit": "fold"}, {"measurement": "VEGF secretion, fold of control values", "setting": "[1]; 200 μg/mL, 24 h (Example 2)", "value": 3, "unit": "fold"}, {"measurement": "VEGF secretion (ELISA)", "setting": "[1]; 0.1, 1.0, 10, 100 μg/mL, 24 h, vs 0 μg/mL (Example 1, FIG. 2)", "value": "no statistically significant differences; also recorded: slight trend of increased VEGF secretion"}, {"measurement": "VEGF secretion at higher concentrations", "setting": "[1]; above 200 μg/mL (300, 400 μg/mL), 24 h", "value": "did not increase above this value"}]}
